Entries after “also recorded” stand apart in the source; their conditions may differ. Like-named read-outs stand apart in the source and are kept apart here.
What was measured:
[1] = Flow cytometric permeabilization of neutral liposomes to calcium; conditions: phosphatidylcholine liposomes, Fluo-3, flow cytometry
Method: (§1) The figure is a composite of data which was presented and analyzed in detail in (Zaretsky and Zaretskaia 2020, Zaretsky and Zaretskaia 2020). Liposomes (400 nm) were made of either phosphatidylserine (A-E, negatively charged lipid) or phosphatidylcholine (F-H, neutral lipid) with added DiD and were extruded in the Ca-free buffer containing 1 mM Fluo-3. After the addition of calcium, aliquots of peptide were added. Ionomycin was used as a positive control. Fluorescence of liposomes was analyzed using a flow cytometer. Each dot at the graph represent a single liposome registered in the flow. The intensity of DiD fluorescence characterizes the amount of membrane material in the liposome, while the fluorescence of Fluo-3 depends on the intraliposomal presence of calcium. […] The liposomes inside rectangle (area R1) are permeabilized, and the number of liposomes which were counted to be within the area is shown.

[2] = Flow cytometric permeabilization of negatively charged liposomes to calcium; conditions: for permeabilization of negatively charged liposomes to calcium: phosphatidylserine liposomes, Fluo-3, flow cytometry
Description: To improve the quantitative aspect of studying the permeabilization of liposomes by […], we developed a flow cytometric technique which allowed us to estimate the number of channel-forming units in the solutions of peptide (Zaretsky and Zaretskaia 2020). This number appears extremely small compared to the total amount of peptide. In model conditions, one channel is formed out of approximately 10^12 molecules of Aβ25-35. The low ratio of channels created by the peptide would not allow for the studying of channel formation using typical methods of protein biology, such as spectroscopy or NMR, for the reason that the signal of interest being too low. Even though the proportion of channels is small, when the peptide was added in micromolar concentrations, thousands of permeabilized vesicles could be observed, which makes the power of channel formation biologically relevant.
as §1

[3] = system: Aβ-induced apoptosis in the brain; conditions: rat brain, cited from earlier work; for effect on Aβ-induced apoptosis (TUNEL) / effect on accumulation of Aβ immunoreactivity / amyloid: simultaneous i.c.v. infusion with Aβ; for effect on apoptosis by the inhibitor itself (spontaneous apoptosis): without Aβ, TUNEL
amyloid channels = amyloid channels (Homo sapiens, UniProt P05067); conditions: cited from earlier work
[4] = system: lysosomes of cells loaded with Lucifer Yellow; conditions: 20 hours incubation; Ji, Miranda et al. 2002; cited from earlier work
[5] = cited from earlier work
[6] = system: Aβ1-42-induced drop of cell survival; conditions: Tizon, Ribe et al. 2010; cited from earlier work
[7] = system: 15 cells derived from pancreatic islets of Langerhans; conditions: cited from earlier work
Aβ1-42 toxicity = conditions: cited from earlier work
[8] = system: 15 cells derived from pancreatic islets of Langerhans; conditions: cited from earlier work; for effect on beta-amyloid-induced drop in cell viability: MTT, stated for both cell lines
[9] = study of Aksenov, Aksenova et al. 1996

Sequence of amyloid channels (P05067 672-713 limits assumed): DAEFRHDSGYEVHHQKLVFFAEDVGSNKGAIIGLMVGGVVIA

C[C@H](CCC(=O)O)C[C@H](C)C[C@H](C)C(=O)/C=C(\O)[C@H](C)C[C@H](C)C/C=C/[C@@H](C)[C@@H](O)[C@@H](C)[C@@H](O)C[C@@H]1CC[C@@](C)([C@H]2CC[C@@](C)([C@@H](C)O)O2)O1 [ionomycin]
permeabilization of neutral liposomes to calcium [1]: permeabilizes thousands of liposomes | permeabilization of negatively charged liposomes to calcium [2]: permeabilizes liposomes

CC(=O)N[C@@H](CC(C)C)C(=O)N[C@@H](CC(C)C)C(=O)N[C@H](C=O)CCCNC(=N)N [leupeptin]
effect on Aβ-induced apoptosis (TUNEL) [3]: promoted apoptosis | effect on accumulation of Aβ immunoreactivity / amyloid [3]: promoted | effect on apoptosis by the inhibitor itself (spontaneous apoptosis) [3]: tends to increase apoptosis by itself

NC(CO)(CO)CO [tromethamine]
blockade of smaller amyloid channels (amyloid channels; channels <400 pS): effectively blocked | blockade of giant amyloid channels (amyloid channels; super-high conductance channels >1 nS): less effective

Aβ1-42: full-length amyloid peptide
pattern of Lucifer Yellow fluorescence in cells (lysosomal permeabilization) [4]: diffuse intracellular pattern of fluorescence | permeabilization of negatively charged liposomes to calcium [2]: ineffective in the permeabilization of the membranes; also recorded: does not permeabilize liposomal membranes

Aβ22-35: longer beta-amyloid fragment without positive overall charge, non-channel-forming (EDVGSNKGAIIGLM; Amyloid-beta protein 42; UniProt P05067 693-706, looked up, fragment)
permeabilization of negatively charged liposomes to calcium [2]: does not create a noticeable number of channels; also recorded: does not permeabilize liposomes

Aβ25-35: positively charged short channel-forming fragment of beta-amyloid (GSNKGAIIGLM; Amyloid-beta protein 42; UniProt P05067 696-706, looked up, fragment)
permeabilization of neutral liposomes to calcium [1]: does not permeabilize liposomes; also recorded: not permeabilized | number of peptide molecules out of which one channel is formed ([2]; model conditions): approximately 10^12 molecules | permeabilization of negatively charged liposomes to calcium [2]: creates multiple liposomes permeable to calcium | percentage of channels with a conductance ([5]; acidic pH (pH 5.0), 20 μM peptide): more than 30% | conductance of formed channels ([5]; upper end of conductance): up to 1 nS

aprotinin
effect on Aβ-induced apoptosis (TUNEL) [3]: prevented Aβ-induced apoptosis | effect on accumulation of Aβ immunoreactivity / amyloid [3]: did not exacerbate intracellular accumulation of amyloid | effect on apoptosis by the inhibitor itself (spontaneous apoptosis) [3]: tends to decrease even spontaneously occurring apoptosis

B1: cystatin C (protein, UniProt P01034 27-146, looked up)
Cystatin-C: SSPGKPPRLVGGPMDASVEEEGVRRALDFAVGEYNKASNDMYHSRALQVVRARKQIVAGVNYFLDVELGRTTCTKTQPNLDNCPFHDQPHLKRKAFCSFQIYAVPWQGTMTLSKSTCQDA
effect on drop of cell survival induced by Aβ1-42 [6]: prevented the drop of cell survival

B2: α1-anti-chymotrypsin (protein, UniProt P01011 24-423, looked up)
Alpha-1-antichymotrypsin: HPNSPLDEENLTQENQDRGTHVDLGLASANVDFAFSLYKQLVLKAPDKNVIFSPLSISTALAFLSLGAHNTTLTEILKGLKFNLTETSEAEIHQSFQHLLRTLNQSSDELQLSMGNAMFVKEQLSLLDRFTEDAKRLYGSEAFATDFQDSAAAKKLINDYVKNGTRGKITDLIKDLDSQTMMVLVNYIFFKAKWEMPFDPQDTHQSRFYLSKKKWVMVPMMSLHHLTIPYFRDEELSCTVVELKYTGNASALFILPDQDKMEEVEAMLLPETLKRWRDSLEFREIGELYLPKFSISRDYNLNDILLQLGIEEAFTSKADLSGITGARNLAVSQVVHKAVLDVFEEGTEASAATAVKITLLSALVETRTIVRFNRPFLMIIVPTDTQNIFFMSKVTNPKQA
effect on amylin-induced drop in cell viability ([7]; MTT, listed as anti-chymotrypsin): prevent amylin-induced cellular toxicity | effect on amylin-induced drop in cell viability ([7]; MTT, listed as α1-anti-chymotrypsin): prevented | protection against amylin ([7]; MTT): < 100% | effect of further increase of concentration on protection against amylin ([7]; above optimal dose): significantly decreased the protective effect | effect on Aβ1-42 toxicity (Aβ1-42 toxicity; [9]): attenuated Aβ1-42 toxicity | effect on fibril formation (Aβ1-42 toxicity; [9]): without affecting fibril formation | effect on Aβ toxicity (Aβ1-42 toxicity; study of Ma, Brewer et al. 1996): not effective | effect on beta-amyloid-induced drop in cell viability [8]: can protect against Aβ-induced drop in cell viability | effect on beta-amyloid-induced drop in cell viability ([8]; listed as α1-anti-chymotrypsin): prevented | effect of further increase of concentration on protection against beta-amyloid ([8]; above optimal dose, both cell lines): disappearance of protection | protection against beta-amyloid-induced drop in cell viability ([8]; in some conditions, stated for both cell lines (15 cells, cortical cultures)): ≤ 100%
